Laboratory results reported in ChEMBL document CHEMBL3808373 (Bioorg Med Chem Lett, 2016).
Activity calls are given as the source filed them. The rule behind the calls is not given here.

Tests used:
[1] = Half life in dog microsomes; type: ADME, Canis lupus familiaris, Microsome
[2] = Half life in human microsomes; type: ADME, Microsome
[3] = target: T1, Nav1.5 (peak sodium current, use-dependent block) (Homo sapiens, UniProt Q14524); experiment: (§1) Inhibition of 3 Hz stimulated human Nav1.5alpha expressed in HEK293 cells assessed as use dependent block of peak sodium current at 1 uM with 3 compound additions at 60 sec intervals at holding potential -100 mV incubated for 320 sec after third compound addition followed by second period of 3 Hz stimulation by PatchXpress method relative to control; type: cell-based; settings: HEK293 cells expressing human Nav1.5alpha
[4] = Half life in rat microsomes; type: ADME, Microsome
[5] = target: T2, Sodium channel protein type 5 subunit alpha (Homo sapiens, UniProt Q14524); settings: HEK293, human, read-out: INH
Description: Inhibition of 0.1 Hz stimulated human Nav1.5alpha expressed in HEK293 cells assessed as inhibition of late sodium current at 10 uM with 3 compound additions for 7 to 8 mins at holding potential -120 mV in presence of late sodium current activator tefluthrin/ATX2 measured immediately after third compound addition by PatchXpress method relative to control

[6] = target: T2, Sodium channel protein type 5 subunit alpha; experiment: (§2) Inhibition of 0.1 Hz stimulated human Nav1.5alpha expressed in HEK293 cells assessed as inhibition of late sodium current with 3 compound additions for 7 to 8 mins at holding potential -120 mV in presence of late sodium current activator tefluthrin/ATX2 measured immediately after third compound addition by PatchXpress method; type: cell-based
[7] = target: T3, Sodium channel protein type 1 subunit alpha (Homo sapiens, UniProt P35498); experiment: Inhibition of 10 Hz stimulated Nav1.1 (unknown origin) assessed as inhibition of peak sodium current at 10 uM by automated patch clamp method relative to control
[8] = Lipophilicity, log D of compound; type: physicochemical; settings: octanol/water
[9] = Ratio of drug level in brain to plasma in dog; type: ADME, cell-free, Canis lupus familiaris; settings: read-out: BPR
[10] = Ratio of drug level in brain to plasma in rat; type: ADME, cell-free; settings: read-out: BPR
[11] = target: T4, Sodium channel protein type 2 subunit alpha (Homo sapiens, UniProt Q99250); experiment: Inhibition of 1 Hz stimulated Nav1.2 (unknown origin) by manual patch clamp method
[12] = target: T3, Sodium channel protein type 1 subunit alpha; experiment: Inhibition of 1 Hz stimulated Nav1.1 (unknown origin) by manual patch clamp method
[13] = target: T4, Sodium channel protein type 2 subunit alpha; experiment: Inhibition of 10 Hz stimulated Nav1.2 (unknown origin) by manual patch clamp method
[14] = target: T3, Sodium channel protein type 1 subunit alpha; experiment: Inhibition of 10 Hz stimulated Nav1.1 (unknown origin) by manual patch clamp method
[15] = target: Voltage-gated inwardly rectifying potassium channel KCNH2 (Homo sapiens, UniProt Q12809); experiment: Inhibition of human ERG
[16] = species on record: Oryctolagus cuniculus; experiment: Inhibition of Nav1.5 in isolated rabbit heart assessed as inhibition of ATX2-induced prolongation of mean action potential duration at 10 to 100000 nM relative to control
[17] = tested on: Heart; experiment: Protection against […]/clofilium-induced ventricular arrhythmias in isolated rabbit heart assessed as torsade des pointes at 14 uM relative to control; type: functional, Oryctolagus cuniculus, Cardiac ventricle
[18] = Clearance in rat microsomes; type: ADME, Microsome
[19] = Oral bioavailability in dog; type: ADME, organism-based, Canis lupus familiaris; settings: in vivo
[20] = target: T2, Sodium channel protein type 5 subunit alpha; experiment: Inhibition of Nav1.5 (unknown origin) assessed as inhibition of late sodium current by manual patch clamp method
[21] = Clearance in human microsomes; type: ADME, Microsome
[22] = Volume of distribution in dog; type: ADME, organism-based, Canis lupus familiaris; settings: in vivo
[23] = target: T2, Sodium channel protein type 5 subunit alpha; experiment: Inhibition of 1 Hz stimulated Nav1.5 (unknown origin) assessed as inhibition of peak sodium current by manual patch clamp method
[24] = Volume of distribution in rabbit; type: ADME, organism-based, Oryctolagus cuniculus; settings: in vivo
[25] = Terminal half life in rabbit; type: ADME, organism-based, Oryctolagus cuniculus; settings: in vivo, read-out: beta t1/2 (converted)
[26] = tested on: Heart; experiment: Protection against […]/clofilium-induced ventricular arrhythmias in isolated rabbit heart assessed as inhibition of torsade des pointes at 3 uM; type: functional, tissue-based; settings: Oryctolagus cuniculus, Cardiac ventricle
[27] = Clearance in rat; type: ADME, organism-based; settings: in vivo
[28] = target: T2, Sodium channel protein type 5 subunit alpha; experiment: Inhibition of 3 Hz stimulated Nav1.5 (unknown origin) assessed as inhibition of peak sodium current by manual patch clamp method
[29] = target: T1, Nav1.5 (peak sodium current, use-dependent block); experiment: as §1, with “at 10” for “at 1”; type: cell-based; settings: HEK293 cells expressing human Nav1.5alpha
[30] = Inhibition of Nav1.5 in isolated rabbit heart assessed as inhibition of ATX2-induced prolongation of mean action potential duration; settings: Oryctolagus cuniculus
[31] = Terminal half life in rat; type: ADME, organism-based; settings: in vivo, read-out: beta t1/2 (converted)
[32] = Oral bioavailability in rat; type: ADME, organism-based; settings: in vivo
[33] = Volume of distribution in rat; type: ADME, organism-based; settings: in vivo
[34] = Clearance in dog microsomes; type: ADME, Canis lupus familiaris, Microsome
[35] = Plasma protein binding in dog; type: ADME, cell-free, Canis lupus familiaris; settings: read-out: PPB (converted)
[36] = Terminal half life in dog; type: ADME, organism-based, Canis lupus familiaris; settings: in vivo, read-out: beta t1/2 (converted)
[37] = Terminal half life in monkey; type: ADME, organism-based, Macaca mulatta; settings: rhesus monkey, in vivo; read-out: beta t1/2 (converted)
[38] = Plasma protein binding in rat; type: ADME, cell-free; settings: read-out: PPB (converted)
[39] = Clearance in rabbit; type: ADME, organism-based, Oryctolagus cuniculus; settings: in vivo
[40] = species on record: Rattus norvegicus; experiment: Toxicity in rat assessed as liver lesions after 7 days; type: organism-based; settings: in vivo, 168 h
[41] = Clearance in dog; type: ADME, organism-based, Canis lupus familiaris; settings: in vivo
[42] = Plasma protein binding in rabbit; type: ADME, cell-free, Oryctolagus cuniculus; settings: read-out: PPB (converted)
[43] = Clearance in cynomolgus monkey; type: ADME, organism-based, Macaca fascicularis; settings: in vivo
[44] = Plasma protein binding in human; type: ADME, cell-free; settings: read-out: PPB (converted)
[45] = Volume of distribution in cynomolgus monkey; type: ADME, organism-based, Macaca fascicularis; settings: in vivo
[46] = target: T2, Sodium channel protein type 5 subunit alpha; experiment: as §2, with “sodium current at 1 uM with 3” for “sodium current with 3”, “PatchXpress method relative to control” for “PatchXpress method”; type: cell-based
[47] = Clearance in cynomolgus monkey microsomes; type: ADME, Macaca fascicularis, Microsome
[48] = target: T1, Nav1.5 (peak sodium current, use-dependent block); experiment: as §1, with “at 0.3” for “at 1”; type: cell-based; settings: HEK293 cells expressing human Nav1.5alpha
[49] = target: T2, Sodium channel protein type 5 subunit alpha; experiment: as §2, with “sodium current at 300 nM with 3” for “sodium current with 3”, “PatchXpress method relative to control” for “PatchXpress method”; type: cell-based

T2 sequence (Q14524 whole entry): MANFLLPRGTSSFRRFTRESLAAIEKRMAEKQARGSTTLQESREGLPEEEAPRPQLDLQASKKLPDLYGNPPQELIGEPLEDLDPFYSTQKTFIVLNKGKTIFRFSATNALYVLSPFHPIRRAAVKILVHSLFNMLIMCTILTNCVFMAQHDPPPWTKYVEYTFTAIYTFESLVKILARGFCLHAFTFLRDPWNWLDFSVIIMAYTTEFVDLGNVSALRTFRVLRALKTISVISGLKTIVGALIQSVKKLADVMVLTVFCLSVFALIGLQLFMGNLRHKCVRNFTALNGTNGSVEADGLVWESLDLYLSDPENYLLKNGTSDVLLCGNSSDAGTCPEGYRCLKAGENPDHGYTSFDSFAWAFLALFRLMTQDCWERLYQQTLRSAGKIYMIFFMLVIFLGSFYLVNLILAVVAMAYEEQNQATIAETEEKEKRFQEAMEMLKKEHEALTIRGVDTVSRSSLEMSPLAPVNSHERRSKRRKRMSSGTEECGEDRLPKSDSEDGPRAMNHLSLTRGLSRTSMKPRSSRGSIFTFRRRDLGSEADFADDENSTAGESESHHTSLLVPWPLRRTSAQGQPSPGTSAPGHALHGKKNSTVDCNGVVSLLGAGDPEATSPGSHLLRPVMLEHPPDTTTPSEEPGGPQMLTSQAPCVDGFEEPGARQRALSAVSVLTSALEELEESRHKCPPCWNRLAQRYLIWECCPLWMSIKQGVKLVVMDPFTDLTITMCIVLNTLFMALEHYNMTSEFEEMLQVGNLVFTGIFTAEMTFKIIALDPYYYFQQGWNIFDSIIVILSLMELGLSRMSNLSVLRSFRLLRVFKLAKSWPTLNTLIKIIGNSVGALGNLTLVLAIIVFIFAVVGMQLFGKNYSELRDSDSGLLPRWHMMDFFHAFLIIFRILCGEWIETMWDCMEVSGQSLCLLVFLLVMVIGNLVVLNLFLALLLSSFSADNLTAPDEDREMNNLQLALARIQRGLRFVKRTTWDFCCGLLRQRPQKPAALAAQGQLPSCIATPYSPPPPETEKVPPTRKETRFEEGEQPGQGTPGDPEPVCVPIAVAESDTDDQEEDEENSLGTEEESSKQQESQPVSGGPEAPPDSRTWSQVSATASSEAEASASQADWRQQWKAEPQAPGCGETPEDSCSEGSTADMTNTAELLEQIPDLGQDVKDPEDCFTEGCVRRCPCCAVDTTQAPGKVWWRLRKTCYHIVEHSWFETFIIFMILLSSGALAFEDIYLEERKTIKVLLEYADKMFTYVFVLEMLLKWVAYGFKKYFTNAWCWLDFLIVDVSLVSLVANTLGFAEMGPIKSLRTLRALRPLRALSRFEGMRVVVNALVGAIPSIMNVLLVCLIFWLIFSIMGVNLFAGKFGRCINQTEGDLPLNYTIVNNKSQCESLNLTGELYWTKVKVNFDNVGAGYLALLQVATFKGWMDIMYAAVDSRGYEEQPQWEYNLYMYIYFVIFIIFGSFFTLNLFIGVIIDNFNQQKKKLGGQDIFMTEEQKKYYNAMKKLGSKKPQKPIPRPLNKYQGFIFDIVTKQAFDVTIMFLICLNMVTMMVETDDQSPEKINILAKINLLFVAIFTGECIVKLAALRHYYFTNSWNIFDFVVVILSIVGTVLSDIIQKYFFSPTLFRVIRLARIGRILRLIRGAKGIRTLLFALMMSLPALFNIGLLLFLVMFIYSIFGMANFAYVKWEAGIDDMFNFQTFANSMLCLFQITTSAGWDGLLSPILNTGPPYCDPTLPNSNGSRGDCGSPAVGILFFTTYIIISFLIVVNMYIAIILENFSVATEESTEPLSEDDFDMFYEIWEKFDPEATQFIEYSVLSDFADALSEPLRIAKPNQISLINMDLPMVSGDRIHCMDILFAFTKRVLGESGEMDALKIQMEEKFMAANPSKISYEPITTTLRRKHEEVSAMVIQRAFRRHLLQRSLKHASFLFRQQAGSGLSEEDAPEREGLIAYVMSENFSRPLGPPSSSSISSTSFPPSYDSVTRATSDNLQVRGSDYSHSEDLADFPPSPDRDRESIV
T1 sequence (Q14524 whole entry): as above

Cc1nc(Cn2nc3ccc(-c4ccc(Oc5ccc(F)cc5)cc4)cn3c2=O)no1
half-life [1]: 2.78 h
half-life [2]: 3.45 h
inhibition at 320 s, 1 µM [3]: 46%
half-life [4]: 2.42 h
inhibition at 10 µM [5]: ≥ 70%
IC50 [6]: 541 µM
inhibition [7]: 65%

Cc1noc(Cn2nc3ccc(-c4ccc(Oc5ccc(Cl)cc5)cc4)cn3c2=O)n1
half-life [1]: 1.57 h
half-life [2]: 0.75 h
inhibition at 320 s, 1 µM [3]: 47%
half-life [4]: 0.567 h
inhibition at 10 µM [5]: ≥ 70%
IC50 [6]: 134 µM
logD [8]: 3.4
inhibition [7]: 42%

Cc1cnc(Cn2nc3ccc(-c4ccc(OC(F)(F)F)cc4)cn3c2=O)o1
half-life [1]: 3.8 h
half-life [2]: 4.8 h
half-life [4]: 0.4 h
inhibition at 10 µM [5]: ≥ 70%
IC50 [6]: 2.5 µM
inhibition [7]: 44%

O=c1n(Cc2nnc(C3CC3)o2)nc2ccc(-c3ccc(Oc4ccc(F)cc4)cc3)cn12
half-life [1]: 4.78 h
half-life [2]: 6.58 h
inhibition at 320 s, 1 µM [3]: 69%
half-life [4]: 6.58 h
inhibition at 10 µM [5]: ≥ 70%
IC50 [6]: 740 µM
inhibition [7]: 56%

FC(F)(F)Oc1ccc(-c2ccc3nnc(C(F)(F)F)n3c2)cc1
Kp [9]: 3
Kp [10]: 5
IC50 [11]: 0.4 µM
IC50 [12]: > 10 µM
IC50 [13]: 7.9 µM
IC50 [14]: 0.4 µM
IC50 [15]: > 10 µM

Cc1cc(Cn2nc3ccc(-c4ccc(OC(F)(F)F)cc4)cn3c2=O)on1
IC50 [6]: > 10 µM

O=c1n(Cc2nc(-c3c(Cl)cccc3Cl)no2)nc2ccc(-c3ccc(OC(F)(F)F)cc3)cn12
inhibition at 10 µM [5]: ≥ 70%
IC50 [6]: 3.5 µM

COc1ccccc1OCC(O)CN1CCN(CC(=O)Nc2c(C)cccc2C)CC1 (centres undefined) [RANOLAZINE]
inhibition [16]: 60%
Activity [17]: 40%

Cc1noc(Cn2nc3ccc(-c4ccc(OC(F)(F)F)cc4)cn3c2=O)n1
CL [18]: 8.67 mL/min/kg
bioavailability [19]: 72.8%
IC50 [20]: 1.33 µM
half-life [1]: 3.93 h
CL [21]: 3.5 mL/min/kg
Kp [9]: > 20
Vd [22]: 4.23 L/kg
IC50 [23]: > 10 µM
half-life [2]: 5.13 h
inhibition [16]: 90%
Vd [24]: 2.24 L/kg
half-life [25]: 4.81 h
inhibition [26]: Active
clearance [27]: 12 mL/min/kg
IC50 [28]: > 10 µM
Kp [10]: > 20
half-life [4]: 3.3 h
inhibition at 320 s, 10 µM [29]: 10%
IC50 [30]: 1.2 µM
half-life [31]: 2.1 h
bioavailability [32]: 44.3%
Vd [33]: 1.95 L/kg
CL [34]: 4.33 mL/min/kg
inhibition at 10 µM [5]: ≥ 70%
IC50 [11]: 4.2 µM
IC50 [6]: 1.9 µM
fraction unbound [35]: 0.057
inhibition [7]: 8%
half-life [36]: 17.3 h
IC50 [12]: > 10 µM
half-life [37]: 4.78 h
fraction unbound [38]: 0.046
clearance [39]: 7.03 mL/min/kg
Activity [40]: Toxic
clearance [41]: 7.98 mL/min/kg
fraction unbound [42]: 0.043
IC50 [13]: 8.1 µM
IC50 [14]: 4.8 µM
clearance [43]: 7.97 mL/min/kg
fraction unbound [44]: 0.05
Vd [45]: 2.29 L/kg
inhibition at 1 µM [46]: 31%
CL [47]: 6.7 mL/min/kg
IC50 [15]: > 10 µM

O=c1n(Cc2noc(CO)n2)nc2ccc(-c3ccc(Oc4ccc(F)cc4)cc3)cn12
half-life [1]: 3.02 h
half-life [2]: 1.35 h
half-life [4]: 0.533 h
inhibition at 320 s, 10 µM [29]: 21%
inhibition at 10 µM [5]: ≥ 70%
IC50 [6]: 981 µM
logD [8]: 2.8
inhibition [7]: 56%

O=c1[nH]nc2ccc(-c3ccc(Oc4ccc(F)cc4)cc3)cn12
half-life [1]: 4.55 h
half-life [2]: 6.58 h
inhibition at 320 s, 1 µM [3]: 28%
half-life [4]: 0.717 h
inhibition at 10 µM [5]: ≥ 70%
IC50 [6]: 1900 µM
inhibition [7]: 40%

O=c1n(Cc2nc(C3CC3)co2)nc2ccc(-c3ccc(OC(F)(F)F)cc3)cn12
half-life [1]: 1.8 h
half-life [2]: 0.65 h
half-life [4]: 0.65 h
inhibition at 10 µM [5]: ≥ 70%
IC50 [6]: 3 µM

Cn1cnc(Cn2nc3ccc(-c4ccc(OC(F)(F)F)cc4)cn3c2=O)n1
IC50 [6]: > 10 µM

Cc1noc(Cn2nc3ccc(-c4ccc(Oc5ccc(F)cc5)cc4)cn3c2=O)n1
half-life [1]: 3.62 h
half-life [2]: 2.12 h
half-life [4]: 1.42 h
inhibition at 10 µM [5]: ≥ 70%
IC50 [6]: 215 µM
logD [8]: 3
inhibition at 320 s, 0.3 µM [48]: 33%

CCc1noc(Cn2nc3ccc(-c4ccc(OC(F)(F)F)cc4)cn3c2=O)n1
inhibition at 10 µM [5]: ≥ 70%
IC50 [6]: 4 µM

Cc1nc(Cn2nc3ccc(-c4ccc(Oc5ccc(Cl)cc5)cc4)cn3c2=O)no1
half-life [1]: 5.9 h
half-life [2]: 6.58 h
inhibition at 320 s, 1 µM [3]: 40%
half-life [4]: 6.5 h
inhibition at 0.3 µM [49]: 60%
inhibition at 10 µM [5]: ≥ 70%
inhibition [7]: 79%

Cc1coc(Cn2nc3ccc(-c4ccc(OC(F)(F)F)cc4)cn3c2=O)n1
half-life [1]: 2.67 h
half-life [2]: 2.4 h
half-life [4]: 0.683 h
inhibition at 10 µM [5]: ≥ 70%
IC50 [6]: 2.5 µM
inhibition [7]: 28%

Cc1nc(Cn2nc3ccc(-c4ccc(OC(F)(F)F)cc4)cn3c2=O)no1
half-life [2]: 6.58 h
half-life [4]: 6.05 h
inhibition at 320 s, 10 µM [29]: 10%
inhibition at 10 µM [5]: ≥ 70%
IC50 [6]: 3.3 µM
inhibition [7]: 27%

O=c1[nH]nc2ccc(-c3ccc(OC(F)(F)F)cc3)cn12
half-life [1]: 3.17 h
half-life [2]: 6.5 h
half-life [4]: 1.48 h
inhibition at 320 s, 10 µM [29]: 24%
inhibition at 10 µM [5]: ≥ 70%
IC50 [6]: 1.9 µM
